In US11999727B2 (Tango Therapeutics, Inc., priority 2020, dated 2024):

What was measured:
[1] = test system: HAP1 MTAP-deleted cell line; test: SDMA in-cell western assay, HAP1 MTAP-deleted; assay type: cell-based; conditions: for IC50: Homo sapiens, HAP1, SDMA in-cell western, HAP1 MTAP-deleted; for MTAP intact/deleted ratio: SDMA in-cell western
In short: (§1)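 MTAP-null vs endogenous-MTAP HAP1 isogenic cells; in-cell western SDMA readout; IC50 per line.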

[2] = test system: HAP1 MTAP-intact cell line; test: SDMA in-cell western assay, HAP1 MTAP-intact; assay type: cell-based; conditions: Homo sapiens, HAP1, SDMA in-cell western, HAP1 MTAP-intact; read-out: MTAP HAP1 intact IC50
In short: as §1

[3] = test system: HAP1 MTAP-deleted cell line; test: Viability assay, MTAP-deleted cell line; assay type: cell-based; conditions: Homo sapiens, read-out: HAP1 MTAP deleted viability
From the text: Table 1 additionally indicates IC50 values in a viability assay for the MTAP-deleted cell line (column 10), indicating the effect of treatment with compound on cell survival.

[4] = molecular target: T1, PRMT5 (Homo sapiens, UniProt O14744); test: PRMT5 biochemical IC50 assay with MTA as cofactor; conditions: PRMT5, MTA as cofactor; read-out: MTA IC50
T1 construct: purchased Viva (custom protein)
T1 sequence (O14744 whole entry): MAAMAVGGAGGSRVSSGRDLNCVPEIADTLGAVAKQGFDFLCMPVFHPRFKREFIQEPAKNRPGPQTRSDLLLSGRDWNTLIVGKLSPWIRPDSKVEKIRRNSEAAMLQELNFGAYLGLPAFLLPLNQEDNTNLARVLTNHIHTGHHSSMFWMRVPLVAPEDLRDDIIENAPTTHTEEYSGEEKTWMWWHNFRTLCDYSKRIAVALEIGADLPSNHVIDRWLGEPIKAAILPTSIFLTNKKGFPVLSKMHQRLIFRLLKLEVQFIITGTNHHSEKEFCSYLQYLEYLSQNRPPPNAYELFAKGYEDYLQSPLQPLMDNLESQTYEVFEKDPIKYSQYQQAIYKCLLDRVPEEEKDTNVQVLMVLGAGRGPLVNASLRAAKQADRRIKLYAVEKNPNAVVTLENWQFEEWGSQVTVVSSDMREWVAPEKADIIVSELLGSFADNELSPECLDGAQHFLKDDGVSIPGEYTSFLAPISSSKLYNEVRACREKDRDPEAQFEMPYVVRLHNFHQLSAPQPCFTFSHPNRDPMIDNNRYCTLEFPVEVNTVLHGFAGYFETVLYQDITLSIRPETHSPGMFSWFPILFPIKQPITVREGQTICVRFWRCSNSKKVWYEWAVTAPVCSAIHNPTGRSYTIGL
T1 sequence (Q9BQA1 whole entry partner): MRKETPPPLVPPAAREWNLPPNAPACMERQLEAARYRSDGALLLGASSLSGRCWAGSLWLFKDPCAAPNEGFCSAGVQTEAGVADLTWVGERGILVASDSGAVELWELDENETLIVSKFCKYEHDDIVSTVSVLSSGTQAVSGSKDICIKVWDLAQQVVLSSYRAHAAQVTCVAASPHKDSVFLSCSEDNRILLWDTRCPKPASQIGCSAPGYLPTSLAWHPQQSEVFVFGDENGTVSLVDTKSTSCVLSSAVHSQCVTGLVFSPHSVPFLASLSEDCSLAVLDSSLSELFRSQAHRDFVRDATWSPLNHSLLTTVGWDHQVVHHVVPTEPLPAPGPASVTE

[5] = molecular target: T1, PRMT5; test: PRMT5 biochemical IC50 assay with SAM as cofactor; conditions: PRMT5, SAM as cofactor; read-out: SAM IC50
[6] = molecular target: T1, PRMT5; test: PRMT5 biochemical IC50 assay with no cofactor; conditions: PRMT5, no cofactor
From the text: Table 1 indicates IC50 values (μM) against PRMT5 for exemplary compounds in the presence of SAM as cofactor, with no cofactor, and with MTA as cofactor, respectively (columns 4-6). […] Ki values can be calculated from the IC50 values as described in the Examples section. As detailed in the Examples section, for the assay performed in the presence of SAM, IC50=Ki×1.5 (Ki=IC50/1.5).

[7] = read-out: HAP 1 MTAP deleted IC50
[8] = IC50 ratio HAP1 MTAP-intact / HAP1 MTAP-deleted
[9] = HAP1, viability IC50, MTAP-deleted cell line
[10] = read-out: HAP1 MTAP deleted IC50
[11] = IC50 ratio HAP1 MTAP-intact vs HAP1 MTAP-deleted
[12] = HAP1, viability assay, MTAP-deleted cell line
[13] = HAP1, viability, HAP1 MTAP-deleted cell line
[14] = read-out: No Cofactor/ rel IC50

| IC50 [1, 7] | IC50 [2] | IC50 [4] | IC50 [5] | IC50 ([6]; read-out: No Cofactor/rel IC50) | IC50 [1, 10] | IC50 [6, 14] | Compound | MTAP intact/deleted ratio [1, 8] | IC50 [3, 9] | IC50 ([3]; HAP1, viability assay, HAP1 MTAP-deleted) | MTAP intact/deleted ratio [1, 11] | IC50 [3, 12] | IC50 [3, 13] |
| --- | --- | --- | --- | --- | --- | --- | --- | --- | --- | --- | --- | --- | --- |
| – | > 1 µM | > 0.5 µM | > 0.5 µM | > 0.5 µM | > 1 µM | – | Cc1cc(NC(=O)C(=O)N2C[C@H](C)CC[C@H]2c2cc(F)c(F)c(Cl)c2)cnc1N (single isomer, unassigned) [Compound 847] | C (an IC50 ratio of less than 3 fold) | – | > 10 µM | – | – | – |
| – | 0.1 to 1 µM | < 0.05 µM | 0.05 to 0.5 µM | 0.05 to 0.5 µM | < 0.1 µM | – | Cc1cc(NC(=O)C(=O)N2C[C@H](C)CC[C@H]2c2ccc(CCN(C)C)cc2)cnc1N (racemic) [Compound 1233, N-(6-amino-5-methyl-3-pyridyl)-2-[2-[4-[2-(dimethylamino)ethyl]phenyl]-5-methyl-1-piperidyl]-2-oxo-acetamide] | – | – | – | B (an IC50 ratio greater than or equal to 3 fold but lower than 10 fold) | < 1 µM | – |
| < 0.1 µM | 0.1 to 1 µM | < 0.05 µM | 0.05 to 0.5 µM | – | – | 0.05 to 0.5 µM | Cc1cc(NC(=O)C(=O)N2C[C@@H](C)CC[C@@H]2c2cc3cn[nH]c3s2)cnc1N (single isomer, unassigned) [Compound 1392] | A (an IC50 ratio greater than or equal to 10 fold) | – | – | – | – | < 1 µM |
| – | > 1 µM | < 0.05 µM | 0.05 to 0.5 µM | 0.05 to 0.5 µM | 0.1 to 1 µM | – | C[C@H]1CC[C@H](c2ccc(Cl)c(Cl)c2)N(C(=O)C(=O)Nc2cncc(C(N)=O)c2)C1 (single isomer, unassigned) [Compound 488] | A (an IC50 ratio greater than or equal to 10 fold) | – | – | – | 1 to 10 µM | – |
| – | < 0.1 µM | < 0.05 µM | < 0.05 µM | < 0.05 µM | < 0.1 µM | – | CCc1cc(NC(=O)C(=O)N2CC(C)CCC2c2ccc3sc(C4CCN(C)CC4C)nc3c2)cnc1N (racemic) [Compound 1131, N-(6-amino-5-ethyl-3-pyridyl)-2-oxo-2-[rac-(2R,5S)-5-methyl-2-[2-[rac-(3R,4R)-1,3-dimethyl-4-piperidyl]-1,3-benzothiazol-5-yl]-1-piperidyl]acetamide] | – | – | – | B (an IC50 ratio greater than or equal to 3 fold but lower than 10 fold) | < 1 µM | – |
| – | < 0.1 µM | < 0.05 µM | < 0.05 µM | < 0.05 µM | < 0.1 µM | – | CCc1cc(NC(=O)C(=O)N2C[C@@H](C)CC[C@@H]2c2ccc3sc(C4(F)CCN(C)CC4)nc3c2)cnc1N [Compound 1160, N-(6-amino-5-ethylpyridin-3-yl)-2-((2R,5S)-2-(2-(4-fluoro-1-methylpiperidin-4-yl)benzo[d]thiazol-5-yl)-5-methylpiperidin-1-yl)-2-oxoacetamide] | – | – | – | A (an IC50 ratio greater than or equal to 10 fold) | < 1 µM | – |
| < 0.1 µM | > 1 µM | < 0.05 µM | 0.05 to 0.5 µM | – | – | 0.05 to 0.5 µM | Cc1cc([C@@H]2CC[C@@H](C)CN2C(=O)C(=O)Nc2cncc(C(N)=O)c2)ccc1Cl (racemic) [Compound 173, rac-5-{2-[(2R,5S)-2-(4-Chloro-3-methylphenyl)-5-methylpiperidin-1-yl]-2-oxoacetamido}pyridine-3-carboxamide] | A (an IC50 ratio greater than or equal to 10 fold) | – | – | – | 1 to 10 µM | – |
| 0.1 to 1 µM | > 1 µM | 0.05 to 0.5 µM | > 0.5 µM | 0.05 to 0.5 µM | – | – | Cc1cc(NC(=O)C(=O)N2C[C@@H](C)CC[C@@H]2[C@H]2CCC[C@@H](O)C2)cnc1N (single isomer, unassigned) [Compound 566] | A (an IC50 ratio greater than or equal to 10 fold) | 1 to 10 µM | – | – | – | – |
| < 0.1 µM | < 0.1 µM | < 0.05 µM | < 0.05 µM | – | – | < 0.05 µM | CCc1cc(NC(=O)C(=O)N2CC(C)CCC2c2ccc3sc(C4CCN(C)CC4C)nc3c2)cnc1N (racemic) [Compound 1373, N-(6-amino-5-ethyl-3-pyridyl)-2-oxo-2-[rac-(2R,5S)-5-methyl-2-[2-[rac-(3S,4S)-1,3-dimethyl-4-piperidyl]-1,3-benzothiazol-5-yl]-1-piperidyl]acetamide] | B (an IC50 ratio greater than or equal to 3 fold but lower than 10 fold) | – | – | – | – | < 1 µM |
| < 0.1 µM | > 1 µM | < 0.05 µM | 0.05 to 0.5 µM | < 0.05 µM | – | – | CCc1cc(NC(=O)C(=O)N2C[C@@H](C)CC[C@@H]2c2cccc3[nH]ncc23)cnc1N (single isomer, unassigned) [Compound 928] | A (an IC50 ratio greater than or equal to 10 fold) | – | – | – | < 1 µM | – |

Second part, the molecule before the results:

| Compound | IC50 [1, 7] | IC50 [2] | IC50 [4] | IC50 [5] | IC50 ([6]; read-out: No Cofactor/rel IC50) | IC50 [1, 10] | IC50 [6, 14] | MTAP intact/deleted ratio [1, 8] | IC50 [3, 9] | IC50 ([3]; HAP1, viability assay, HAP1 MTAP-deleted) | MTAP intact/deleted ratio [1, 11] | IC50 [3, 12] | IC50 [3, 13] |
| --- | --- | --- | --- | --- | --- | --- | --- | --- | --- | --- | --- | --- | --- |
| COc1ncc(NC(=O)C(=O)N2C[C@H](C)CC[C@H]2c2ccc3c(c2)CCC(=O)N3)cc1C(N)=O (single isomer, unassigned) [Compound 674] | < 0.1 µM | 0.1 to 1 µM | < 0.05 µM | 0.05 to 0.5 µM | < 0.05 µM | – | – | A (an IC50 ratio greater than or equal to 10 fold) | < 1 µM | – | – | – | – |
| Cc1cc(NC(=O)C(=O)N2C[C@H](C)[C@H](CC(C)C)C[C@H]2c2ccc3scnc3c2)cnc1N (single isomer, unassigned) [Compound 1190] | – | 0.1 to 1 µM | < 0.05 µM | 0.05 to 0.5 µM | < 0.05 µM | < 0.1 µM | – | – | – | – | A (an IC50 ratio greater than or equal to 10 fold) | < 1 µM | – |
| C[C@H]1CC[C@H](c2ccncc2)N(C(=O)C(=O)Nc2cncc(C(N)=O)c2)C1 (single isomer, unassigned) [Compound 539, 5-(2-(5-methyl-2-(pyridin-4-yl)piperidin-1-yl)-2-oxoacetamido)nicotinamide] | < 0.1 µM | > 1 µM | < 0.05 µM | 0.05 to 0.5 µM | 0.05 to 0.5 µM | – | – | A (an IC50 ratio greater than or equal to 10 fold) | 1 to 10 µM | – | – | – | – |
| CC1(C)CCCC2CN(C(=O)C(=O)Nc3cncc(C(N)=O)c3)CCC21 (racemic) [Compound 141, 5-[2-(5,5-Dimethyl-decahydroisoquinolin-2-yl)-2-oxoacetamido]pyridine-3-carboxamide] | 0.1 to 1 µM | > 1 µM | < 0.05 µM | 0.05 to 0.5 µM | – | – | 0.05 to 0.5 µM | A (an IC50 ratio greater than or equal to 10 fold) | – | – | – | > 10 µM | – |
| COc1ncc(NC(=O)C(=O)N2C[C@@H](C)CC[C@@H]2c2ccc3sc(C[C@@H](C)N(C)C)nc3c2)cc1C(N)=O [Compound 1317, 5-(2-((2R,5S)-2-(2-((R)-2-(dimethylamino)propyl)benzo[d]thiazol-5-yl)-5-methylpiperidin-1-yl)-2-oxoacetamido)-2-methoxynicotinamide] | < 0.1 µM | < 0.1 µM | < 0.05 µM | 0.05 to 0.5 µM | – | – | < 0.05 µM | A (an IC50 ratio greater than or equal to 10 fold) | – | – | – | – | < 1 µM |
| Cc1cc(NC(=O)C(=O)N2C[C@H](C)C(F)(F)C[C@H]2c2ccc(F)c(F)c2)cnc1N (single isomer, unassigned) [Compound 684] | > 1 µM | > 1 µM | > 0.5 µM | > 0.5 µM | > 0.5 µM | – | – | C (an IC50 ratio of less than 3 fold) | > 10 µM | – | – | – | – |
| Cc1ncc(NC(=O)C(=O)N2C[C@H](C)CC[C@H]2c2ccccc2)cc1C(N)=O (single isomer, unassigned) [Compound 196] | – | > 1 µM | > 0.5 µM | > 0.5 µM | > 0.5 µM | > 1 µM | – | C (an IC50 ratio of less than 3 fold) | – | – | – | > 10 µM | – |
| CCc1cc(NC(=O)C(=O)N2C[C@@H](C)CC[C@@H]2c2cc(Cl)cc(Cl)c2)cnc1N (single isomer, unassigned) [Compound 951] | < 0.1 µM | > 1 µM | < 0.05 µM | 0.05 to 0.5 µM | < 0.05 µM | – | – | A (an IC50 ratio greater than or equal to 10 fold) | – | – | – | 1 to 10 µM | – |
